{
  "source": "paper PMC7156456",
  "about": "“Modulation of virus-induced NF-κB signaling by NEMO coiled coil mimics” (Nature Communications, 2020)",
  "key": {"vFLIP/NEMO interaction": {"molecular_target": "T1, vFLIP/NEMO interaction (Human herpesvirus 8 type P, UniProt F5HEZ4)", "T1 construct": "vFLIP (1-178) and NEMO (150-272) were cloned into pET28a vector; made in house; host or cells: E. coli BL21(DE3)", "T1 sequence (F5HEZ4 1-178)": "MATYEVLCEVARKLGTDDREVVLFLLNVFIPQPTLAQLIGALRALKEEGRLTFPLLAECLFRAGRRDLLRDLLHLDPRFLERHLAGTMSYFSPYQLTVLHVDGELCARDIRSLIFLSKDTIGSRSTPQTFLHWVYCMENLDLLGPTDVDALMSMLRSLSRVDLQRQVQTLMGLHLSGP", "assay": "biochemical", "type": "binding, Kaposi's sarcoma herpesvirus (KSHV)", "protocol": "For the competition assay, two-fold serial dilution of the different NEMO mimetics were prepared in DMSO then diluted in TR-FRET buffer to 5× and added in triplicates to a 384 low volume well plate. His-MBP vFLIP diluted to 5× in TR-FRET buffer (250 nM) was then added to each well and incubated for 15 min at RT. His-Biotinylated NEMO diluted to 5× in TR-FRET buffer (250 nM) was the added to the mixture followed by addition of 5× or 200 nM) streptavidin-XL665 and (5× or 1 nM) of the antibody-tagged fluorophore anti-MBPK labeled with Europium cryptate). The final concentration of the NEMO mimetics ranged from 0.195 μM to 100 μM. Total assay volume was 20 μL. The plate was incubated for 1 h at RT then read using BioTek Synergy NEO. Titration of non-biotinylated NEMO (0.0195-10 μM) was used as a positive control in every run. The effect of the peptides on vFLIP/NEMO interaction was normalized to the control and expressed as percent inhibition (% of control):\n%ofcontrol=FRETCHD−FRETbackground/FRETcontrol−FRETbackground where FRET control is the TR-FRET signal in DMSO treated wells (highest signal) and FRET background is TR-FRET signal in wells containing the highest concentration of non-biotinylated NEMO (10 μM) which provides the lowest signal. Normalized TR-FRET data was plotted using Graphpad Prism.\nSupplementary Figure 1. Schematic representation of the Time-resolved Fluorescence Energy Transfer (TR-FRET) binding assay. (a) Complexes of recombinant his-MBP vFLIP, biotinylated His-NEMO, Europium cryptate conjugated anti-MBP antibody and strepavidin XL665 were used to generate proximity for a FRET signal between the donor fluorophore Europium cryptate and the acceptor fluorophore strepavidin XL665. The TR-FRET signal was calculated as a ratiometric measurement of the acceptor fluoroscence emission at 665nm over the donor emission at 620nm multiplied by 10000. […] (d) Size exclusion chromatography of NEMO-vFLIP complex indicating a shift to the left in absorbance at 280nm when NEMO binds specifically to vFLIP. […]"}, "BC-1 PEL cells": {"tested_on": "BC-1 PEL cells", "assay": "Live cell confocal microscopy, cellular uptake", "type": "cell-based", "protocol": "Cells were then added to 35 mm glass bottom MatTek poly-lysine coated plates (p356c-0-10C) and immunofluorescence images were captured using LSM880 confocal miscroscope with Airyscan resolution detector, spectral detector and incubation. Images were processed using Fiji software (Supplementary Fig. 11)."}, "full length NEMO": {"molecular_target": "full length NEMO (Homo sapiens, UniProt Q9Y6K9)", "sequence (Q9Y6K9 193-252 limits assumed)": "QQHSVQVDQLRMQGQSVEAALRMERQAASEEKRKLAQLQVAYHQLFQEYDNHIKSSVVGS", "assay": "Fluorescence polarization direct binding assay, NEMO control", "protocol": "The relative affinity of FITC-CHD3^NEMO to MBP-vFLIP were determined using fluorescence polarization-based direct binding assay. The polarization experiments were performed using a DTX 880 Multimode Detector (Beckman) at 25 °C with excitation and emission wavelengths of 485 and 525 nm, respectively. Each polarization experiment was performed in a 96-well round bottom plate (Greiner) in assay buffer: 20 mM Tris-HCl, 150 mM NaCl, 0.5 mM TCEP, 10% glycerol, 0.1% pluronic acid, pH 8. The binding affinity (KD) values reported for each peptide are from experiments performed in triplicate. Raw values were fit to a sigmoidal dose-response nonlinear regression model in Graphad Prism 6.0.\nAll binding experiments with FITC-labeled CHD peptide to MBP-vFLIP were performed under the same conditions. Briefly, serial dilutions of MBP-vFLIP were made from 75 μM into 100 nM of FITC-labeled CHD peptide in assay buffer. KD was determined using the following equation[56]: KD=RT×1−FSB+LST×FSB2/FSB−LST where, […]"}, "[1]": {"tested_on": "vFLIP and NEMO levels in Namalwa Mut vFLIP cell line", "assay": "vFLIP protein stability, Namalwa Mut vFLIP cell line", "type": "cell-based", "details": "5 μM, within 2 h of treatment", "protocol": "vFLIP protein stability and turnover was measured by treating Namalwa WT vFLIP and NF-kB dead vFLIP mutant cell lines in the presence or absence of 5 μM of the proteasomal inhibitor MG-132 (Calbiochem cat 474790) and 100 μg/mL of the protein synthesis inhibitor cycloheximide (Sigma-Aldrich, cat. 66-81-9). Cells were harvested at the indicated time intervals and lysed in RIPA buffer and supernatants were analyzed by immunoblotting."}, "BC-3": {"tested_on": "BC-3", "set-up": "method as in earlier work", "details": "BC-3, PEL, KSHV+; ref 2,3,4 (supplement); read-out: PU-H71 LC50; cited from earlier work"}, "BCBL-1": {"tested_on": "BCBL-1", "set-up": "method as in earlier work", "details": "BCBL-1, PEL, KSHV+; ref 2,3,4 (supplement); read-out: PU-H71 LC50; cited from earlier work"}, "Namalwa": {"tested_on": "Namalwa", "set-up": "method as in earlier work", "details": "Burkitt, EBV+, ref 2,3,4 (supplement), read-out: PU-H71 LC50; cited from earlier work"}, "BC-1": {"tested_on": "BC-1", "set-up": "method as in earlier work", "details": "BC-1, PEL, KSHV+/EBV+; ref 2,3,4 (supplement); read-out: PU-H71 LC50; cited from earlier work"}, "BC-2": {"tested_on": "BC-2", "set-up": "method as in earlier work", "details": "BC-2, PEL, KSHV+/EBV+; ref 2,3,4 (supplement); read-out: PU-H71 LC50; cited from earlier work"}},
  "note": "Peptide text beside a SMILES is read from it. * marks the point of attachment. Cbz = O=C(OCc1ccccc1)*",
  "data": [
    {"smiles": "CC[C@H](C)[C@H](NC(=O)[C@H](C)NC(=O)[C@H](CCC(=O)O)NC(C)=O)C(=O)N[C@@H](CCCNC(=N)N)C(=O)N[C@@H](CCC(N)=O)C(=O)N[C@@H](CC(C)C)C(=O)N[C@@H](Cc1ccc(O)cc1)C(=O)N[C@@H](CCC(=O)O)C(=O)N[C@@H](CCC(=O)O)C(=O)N[C@H](C(=O)N[C@@H](CCCNC(=N)N)C(=O)N[C@@H](CC(N)=O)C(=O)N[C@@H](CC(C)C)C(=O)N[C@@H](CCCCn1cc(COCc2cn(CCCC[C@H](NC(=O)[C@H](CCCNC(=N)N)NC(=O)[C@H](Cc3ccccc3)NC(=O)[C@H](CC(C)C)NC(=O)[C@H](CCCNC(=N)N)NC(=O)[C@H](Cc3c[nH]cn3)NC(=O)[C@@H](NC(=O)[C@H](CCC(=O)O)NC(C)=O)[C@@H](C)CC)C(=O)N[C@H](C(=O)N[C@@H](CC(=O)O)C(=O)N[C@@H](CCC(=O)O)C(=O)N[C@@H](CC(C)C)C(=O)N[C@H](C(=O)N[C@@H](CCCNC(=N)N)C(N)=O)[C@@H](C)CC)[C@@H](C)CC)nn2)nn1)C(N)=O)[C@@H](C)CC", "note": "[CHD1^NEMO]", "values": [
      {"measurement": "Ki", "setting": "vFLIP/NEMO interaction", "value": "> 50", "unit": "µM"}
    ]},
    {"smiles": "CC[C@H](C)[C@H](NC(=O)[C@H](C)NC(=O)[C@H](CCC(=O)O)NC(C)=O)C(=O)N[C@@H](CCCNC(=N)N)C(=O)N[C@@H](CCC(N)=O)C(=O)N[C@@H](CC(C)C)C(=O)N[C@@H](Cc1c[nH]c2ccccc12)C(=O)N[C@@H](CCC(=O)O)C(=O)N[C@@H](CCC(=O)NC1CCCCC1)C(=O)N[C@H](C(=O)N[C@@H](CCCNC(=N)N)C(=O)N[C@@H](CCCNC(=N)N)C(=O)N[C@@H](CC(C)C)C(=O)N[C@@H](CCCCn1cc(COCc2cn(CCCC[C@H](NC(=O)[C@H](CCCNC(=N)N)NC(=O)[C@H](Cc3ccccc3)NC(=O)[C@H](CC(C)C)NC(=O)[C@H](CCCNC(=N)N)NC(=O)[C@H](C)NC(=O)[C@@H](NC(=O)[C@H](CCC(=O)O)NC(C)=O)[C@@H](C)CC)C(=O)N[C@H](C(=O)N[C@@H](CC(=O)O)C(=O)N[C@@H](CCC(=O)O)C(=O)N[C@@H](CC(C)C)C(=O)N[C@H](C(=O)N[C@@H](CCCNC(=N)N)C(N)=O)[C@@H](C)CC)[C@@H](C)CC)nn2)nn1)C(N)=O)[C@@H](C)CC", "note": "[CHD4^NEMO]", "values": [
      {"measurement": "Ki", "setting": "vFLIP/NEMO interaction", "value": "> 50", "unit": "µM"}
    ]},
    {"smiles": "CC[C@H](C)[C@H](NC(=O)[C@H](CC(C)C)NC(=O)[C@H](CCC(=O)O)NC(=O)[C@H](CC(=O)O)NC(=O)[C@@H](NC(=O)[C@H](CCCCn1cc(COCc2cn(CCCC[C@H](NC(=O)[C@H](CC(C)C)NC(=O)[C@H](CCCNC(=N)N)NC(=O)[C@H](CCCNC(=N)N)NC(=O)[C@@H](NC(=O)[C@H](CCC(=O)NC3CCCCC3)NC(=O)[C@H](CCC(=O)O)NC(=O)[C@H](Cc3c[nH]c4ccccc34)NC(=O)[C@H](CC(C)C)NC(=O)[C@H](CCC(N)=O)NC(=O)[C@H](CCCNC(=N)N)NC(=O)[C@@H](NC(=O)[C@H](Cc3c[nH]c4ccccc34)NC(=O)[C@H](CCC(=O)O)NC(=O)CCNC(=S)Nc3ccc4c(c3)C(=O)OC43c4ccc(O)cc4Oc4cc(O)ccc43)[C@@H](C)CC)[C@@H](C)CC)C(N)=O)nn2)nn1)NC(=O)[C@H](CCCNC(=N)N)NC(=O)[C@H](Cc1ccccc1)NC(=O)[C@H](CC(C)C)NC(=O)[C@H](CCCNC(=N)N)NC(=O)[C@H](Cc1c[nH]cn1)NC(=O)[C@@H](NC(=O)[C@H](CCC(=O)O)NC(C)=O)[C@@H](C)CC)[C@@H](C)CC)C(=O)N[C@@H](CCCNC(=N)N)C(N)=O", "note": "[FITC-CHD3^NEMO]", "values": [
      {"measurement": "cellular uptake", "setting": "BC-1 PEL cells; 500 nM FITC-labeled peptide, 37 °C, live BC-1 cells", "value": "enters BC-1 cells"},
      {"measurement": "cellular uptake at 4 °C / with sodium azide", "setting": "BC-1 PEL cells; 4 °C or 10 mM sodium azide", "value": "reduction in cellular uptake"},
      {"measurement": "binding to wild-type NEMO coiled coil", "setting": "full length NEMO", "value": "does not bind"}
    ]},
    {"smiles": "CC(C)C[C@@H](C=O)NC(=O)[C@H](CC(C)C)NC(=O)[C@H](CC(C)C)NC(=O)OCc1ccccc1", "note": "[MG132] (Cbz-Leu-Leu-Leu-aldehyde)", "values": [
      {"measurement": "vFLIP and NEMO protein levels", "setting": "[1]", "value": "stabilized vFLIP protein and increased NEMO levels"}
    ]},
    {"smiles": "CC(C)NCCCn1c(Sc2cc3c(cc2I)OCO3)nc2c(N)ncnc21", "note": "[PU-H71]", "values": [
      {"measurement": "CC50", "setting": "BC-3", "value": 0.0634, "unit": "µM"},
      {"measurement": "CC50", "setting": "BCBL-1", "value": 0.217, "unit": "µM"},
      {"measurement": "CC50", "setting": "Namalwa", "value": 0.337, "unit": "µM"},
      {"measurement": "CC50", "setting": "BC-1", "value": 0.0369, "unit": "µM"},
      {"measurement": "CC50", "setting": "BC-2", "value": 0.0271, "unit": "µM"}
    ]}
  ]
}
